{"source": "ChEMBL document CHEMBL2407012", "about": "“Structural and biological exploration of phe(3)-phe(4)-modified endomorphin-2 peptidomimetics” (ACS Med Chem Lett, 2013)", "key": {"Mu-type opioid receptor": {"molecular_target": "Mu-type opioid receptor (Homo sapiens, UniProt P35372)", "sequence (P35372 whole entry)": "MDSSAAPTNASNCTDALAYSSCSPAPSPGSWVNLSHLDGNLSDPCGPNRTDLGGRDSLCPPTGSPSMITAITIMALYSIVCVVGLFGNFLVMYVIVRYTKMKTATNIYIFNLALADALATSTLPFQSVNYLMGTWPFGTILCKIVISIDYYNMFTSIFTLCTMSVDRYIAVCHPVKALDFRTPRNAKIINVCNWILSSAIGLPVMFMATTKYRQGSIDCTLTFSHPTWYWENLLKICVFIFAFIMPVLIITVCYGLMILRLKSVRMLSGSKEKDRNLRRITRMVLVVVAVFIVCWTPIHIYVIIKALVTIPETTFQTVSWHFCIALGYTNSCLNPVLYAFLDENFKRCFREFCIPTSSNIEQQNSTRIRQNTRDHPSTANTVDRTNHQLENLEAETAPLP", "assay": "Displacement of [3H]DAMGO from mu opioid receptor (unknown origin) expressed in CHO cells after 90 mins by liquid scintillation counting", "assay_type": "cell-based"}, "[1]": {"molecular_target": "Delta-type opioid receptor (Homo sapiens, UniProt P41143)", "sequence (P41143 whole entry)": "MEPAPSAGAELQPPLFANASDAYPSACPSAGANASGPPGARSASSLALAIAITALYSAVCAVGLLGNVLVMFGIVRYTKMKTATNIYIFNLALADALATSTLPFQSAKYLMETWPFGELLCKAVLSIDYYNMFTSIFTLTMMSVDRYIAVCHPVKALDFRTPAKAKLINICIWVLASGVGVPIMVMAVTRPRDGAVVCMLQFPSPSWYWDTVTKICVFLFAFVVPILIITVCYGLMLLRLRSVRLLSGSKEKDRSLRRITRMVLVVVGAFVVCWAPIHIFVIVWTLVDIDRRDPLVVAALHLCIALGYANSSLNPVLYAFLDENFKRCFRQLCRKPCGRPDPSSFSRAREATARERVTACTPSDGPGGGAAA", "assay": "Displacement of [3H]DPDPE from delta opioid receptor (unknown origin) expressed in CHO cells after 90 mins by liquid scintillation counting", "assay_type": "cell-based"}}, "data": [{"smiles": "NC(=O)[C@H](CNC(=O)C[C@H](Cc1ccccc1)NC(=O)[C@@H]1CCCN1C(=O)[C@@H](N)Cc1ccc(O)cc1)Cc1ccccc1", "values": [{"measurement": "Ki", "setting": "Mu-type opioid receptor", "value": 3.3, "unit": "nM"}, {"measurement": "Ki", "setting": "[1]", "value": 463, "unit": "nM"}]}, {"smiles": "NC(=O)[C@@H](CNC(=O)C[C@H](Cc1ccccc1)NC(=O)[C@@H]1CCCN1C(=O)[C@@H](N)Cc1ccc(O)cc1)Cc1ccccc1", "values": [{"measurement": "Ki", "setting": "Mu-type opioid receptor", "value": 5.5, "unit": "nM"}, {"measurement": "Ki", "setting": "[1]", "value": 1350, "unit": "nM"}]}, {"smiles": "NC(=O)[C@H]1Cc2ccccc2CN(C(=O)C[C@H](Cc2ccccc2)NC(=O)[C@@H]2CCCN2C(=O)[C@@H](N)Cc2ccc(O)cc2)C1", "values": [{"measurement": "Ki", "setting": "Mu-type opioid receptor", "value": 14, "unit": "nM"}, {"measurement": "Ki", "setting": "[1]", "value": 187, "unit": "nM"}]}, {"smiles": "NC(=O)[C@H](CNC(=O)[C@H](CNC(=O)[C@@H]1CCCN1C(=O)[C@@H](N)Cc1ccc(O)cc1)Cc1ccccc1)Cc1ccccc1", "values": [{"measurement": "Ki", "setting": "Mu-type opioid receptor", "value": 101, "unit": "nM"}, {"measurement": "Ki", "setting": "[1]", "value": 922, "unit": "nM"}]}, {"smiles": "NC(=O)C[C@@H]1Cc2ccccc2CN1C(=O)C[C@H](Cc1ccccc1)NC(=O)[C@@H]1CCCN1C(=O)[C@@H](N)Cc1ccc(O)cc1", "values": [{"measurement": "Ki", "setting": "Mu-type opioid receptor", "value": 20, "unit": "nM"}, {"measurement": "Ki", "setting": "[1]", "value": 1650, "unit": "nM"}]}, {"smiles": "NC(=O)C[C@H](Cc1ccccc1)NC(=O)C[C@H](Cc1ccccc1)NC(=O)[C@@H]1CCCN1C(=O)[C@@H](N)Cc1ccc(O)cc1", "values": [{"measurement": "Ki", "setting": "Mu-type opioid receptor", "value": 19, "unit": "nM"}, {"measurement": "Ki", "setting": "[1]", "value": 2800, "unit": "nM"}]}, {"smiles": "NC(=O)[C@@H]1Cc2ccccc2CN(C(=O)C[C@H](Cc2ccccc2)NC(=O)[C@@H]2CCCN2C(=O)[C@@H](N)Cc2ccc(O)cc2)C1", "values": [{"measurement": "Ki", "setting": "Mu-type opioid receptor", "value": 21, "unit": "nM"}, {"measurement": "Ki", "setting": "[1]", "value": 695, "unit": "nM"}]}]}
